# Results from PMC8286840, “Identifying SARS-CoV-2 antiviral compounds by screening for small molecule inhibitors of Nsp3 papain-like protease” (Biochemical Journal, 2021).
# Counter-ions that a name gives are not always drawn. Like-named read-outs stand apart in the source and are kept apart here.
# Assays:
# [1] = target: T1, SARS-CoV-2 PLpro (nsp3 1564–1878) (Severe acute respiratory syndrome coronavirus 2, UniProt P0DTD1); experiment: biochemical; parameters: FRET-quenched peptide (Pro3) cleavage by PLpro, 10 min pre-incubation, slope over 20 min, normalised to no-compound control; conditions: low concentration screen, read-out: % of control remaining
# [2] = target: T1, SARS-CoV-2 PLpro (nsp3 1564–1878); experiment: biochemical; parameters: FRET-quenched peptide (Pro3) cleavage by PLpro, 10 min pre-incubation, slope over 20 min, normalised to no-compound control; conditions: high concentration screen, read-out: % of control remaining
compound,measurement,setting,value
Nc1ncnc2c1ncn2[C@H]1C[C@H](O)[C@@H](CO)O1 [2'-Deoxyadenosine],remaining activity at 1.25 µM,[1]; Well no.=6691,106%
same,remaining activity at 1.25 µM,[1]; Well no.=7722,95.5%
same,remaining activity at 3.75 µM,[2]; Well no.=6691,105%
same,remaining activity at 3.75 µM,[2]; Well no.=7722,101%
Cc1cc(Cc2cc(C)cc(C(C)(C)C)c2O)c(O)c(C(C)(C)C)c1 [GERI-BP002A],remaining activity at 1.25 µM,[1]; Well no.=3907,104%
same,remaining activity at 3.75 µM,[2]; Well no.=3907,97.7%
NC(=O)c1ccc(I)c([N+](=O)[O-])c1 [Iniparib (BSI-201)],remaining activity at 1.25 µM,[1]; Well no.=5011,103%
same,remaining activity at 3.75 µM,[2]; Well no.=5011,103%
CCN(CC)C(=O)N[C@@H]1C[C@@H]2c3cccc4[nH]cc(c34)C[C@H]2N(C)C1 [R(+)-Terguride],remaining activity at 1.25 µM,[1]; Well no.=1330,103%
same,remaining activity at 3.75 µM,[2]; Well no.=1330,104%
COc1ccc(C[C@H](NC(=O)[C@H](C)NC(=O)CN2CCOCC2)C(=O)N[C@@H](Cc2ccccc2)C(=O)[C@@]2(C)CO2)cc1 [ONX-0914 (PR-957)],remaining activity at 1.25 µM,[1]; Well no.=9126,90%
same,remaining activity at 3.75 µM,[2]; Well no.=9126,93.6%
N#Cc1cc(-c2n[nH]c(-c3ccncc3)n2)ccn1 [Topiroxostat],remaining activity at 1.25 µM,[1]; Well no.=8440,96.2%
same,remaining activity at 3.75 µM,[2]; Well no.=8440,97.1%
COc1cc(Br)c(Nc2nc(-c3c(C)nc4ncccn34)cs2)c(Br)c1 [PTC-209],remaining activity at 1.25 µM,[1]; Well no.=5643,94.3%
same,remaining activity at 3.75 µM,[2]; Well no.=5643,95%
N#CC(C#N)=Cc1cc(O)c(O)c(O)c1 [Tyrphostin 25],remaining activity at 1.25 µM,[1]; Well no.=1485,90.9%
same,remaining activity at 3.75 µM,[2]; Well no.=1485,86.6%
"O=C1N=C(NCc2cccs2)S/C1=C\c1ccc2ncccc2c1 [Cdk1 Inhibitor IV, RO-3306]",remaining activity at 1.25 µM,[1]; Well no.=2347,103%
same,remaining activity at 3.75 µM,[2]; Well no.=2347,104%
COc1ccc2c(c1)C(=O)N(CCc1ccc(S(=O)(=O)NC(=O)NC3CCCCC3)cc1)C(=O)C2(C)C [Gliquidone],remaining activity at 1.25 µM,[1]; Well no.=5369,97.2%
same,remaining activity at 3.75 µM,[2]; Well no.=5369,95.2%
CCOC(=O)[N-]c1c[n+](N2CCOCC2)no1 [Molsidomine],remaining activity at 1.25 µM,[1]; Well no.=780,110%
same,remaining activity at 1.25 µM,[1]; Well no.=1803,97.9%
same,remaining activity at 3.75 µM,[2]; Well no.=780,104%
same,remaining activity at 3.75 µM,[2]; Well no.=1803,96.1%
CC1(C)CCC(C)(C)c2cc(C3(c4ccc(C(=O)O)cc4)OCCO3)ccc21 [SR11237],remaining activity at 1.25 µM,[1]; Well no.=5768,96%
same,remaining activity at 3.75 µM,[2]; Well no.=5768,90.6%
O=c1[nH]c(=O)n([C@H]2C[C@H](O)[C@@H](CO)O2)cc1/C=C/Br [Brivudine],remaining activity at 1.25 µM,[1]; Well no.=8845,107%
same,remaining activity at 3.75 µM,[2]; Well no.=8845,98.3%
OC(CN1CCN(c2cccc(Cl)c2)CC1)C(c1ccccc1)c1ccccc1 (stereo not shown) [BRL 15572],remaining activity at 1.25 µM,[1]; Well no.=131,95.9%
same,remaining activity at 3.75 µM,[2]; Well no.=131,98.1%
O=S1(=O)CCN(CN2CCS(=O)(=O)NC2)CN1 [Taurolidine],remaining activity at 1.25 µM,[1]; Well no.=5628,103%
same,remaining activity at 3.75 µM,[2]; Well no.=5628,109%
CCOc1ccccc1OCCN[C@H](C)Cc1ccc(OC)c(S(N)(=O)=O)c1 [Tamsulosin],remaining activity at 1.25 µM,[1]; Well no.=2295,95%
same,remaining activity at 1.25 µM,[1]; Well no.=7386,98.7%
same,remaining activity at 3.75 µM,[2]; Well no.=2295,95.1%
same,remaining activity at 3.75 µM,[2]; Well no.=7386,94.5%
CC1=C2C(=O)[C@H]3[C@@H](CC=C4C[C@@H](O)CC[C@@]43C)[C@@H]2CC[C@]12O[C@@H]1C[C@H](C)CN[C@H]1[C@H]2C [Jervine],remaining activity at 1.25 µM,[1]; Well no.=3367,92%
same,remaining activity at 3.75 µM,[2]; Well no.=3367,96.2%
C[N+](C)(C)CCOC(=O)CCC(=O)OCC[N+](C)(C)C [Succinylcholine chloride],remaining activity at 1.25 µM,[1]; Well no.=1318,103%
same,remaining activity at 1.25 µM,[1]; Well no.=6064,99%
same,remaining activity at 3.75 µM,[2]; Well no.=1318,103%
same,remaining activity at 3.75 µM,[2]; Well no.=6064,96.6%
O=S(=O)(O)CCSSCCS(=O)(=O)O [Dimesna],remaining activity at 1.25 µM,[1]; Well no.=5105,104%
same,remaining activity at 3.75 µM,[2]; Well no.=5105,105%
CC(C)n1c(/C=C/[C@@H](O)C[C@@H](O)CC(=O)O)c(-c2ccc(F)cc2)c2ccccc21 [Fluvastatin sodium (Lescol)],remaining activity at 1.25 µM,[1]; Well no.=4998,106%
same,remaining activity at 3.75 µM,[2]; Well no.=4998,102%
O=C(O)/C(S)=C/c1ccc(I)cc1 [PD 150606],remaining activity at 1.25 µM,[1]; Well no.=5432,93.8%
same,remaining activity at 3.75 µM,[2]; Well no.=5432,97.7%
COCC(=O)NC/C=C/c1ccc2ncnc(Nc3ccc(Oc4ccc(C)nc4)c(C)c3)c2c1 [CP-724714],remaining activity at 1.25 µM,[1]; Well no.=2837,103%
same,remaining activity at 3.75 µM,[2]; Well no.=2837,103%
CC(=O)C1=C(O)C=C2Oc3c(C(C)=O)c(O)c(C)c(O)c3[C@@]2(C)C1=O [(+)-Usnic acid],remaining activity at 1.25 µM,[1]; Well no.=3394,98.2%
same,remaining activity at 3.75 µM,[2]; Well no.=3394,102%
CC(C)=CCC/C(C)=C/CC/C(C)=C/CC/C(C)=C/CC/C(C)=C/CC/C(C)=C/CC/C(C)=C/CC/C(C)=C/CC/C(C)=C/CO [Solanesol],remaining activity at 1.25 µM,[1]; Well no.=3759,96.8%
same,remaining activity at 3.75 µM,[2]; Well no.=3759,96.5%
CO[C@H]1C[C@@H]2CC[C@@H](C)[C@@](O)(O2)C(=O)C(=O)N2CCCC[C@H]2C(=O)O[C@H]([C@H](C)C[C@@H]2CC[C@H](n3cnnn3)[C@H](OC)C2)CC(=O)[C@H](C)/C=C(\C)[C@@H](O)[C@@H](OC)C(=O)[C@H](C)C[C@H](C)/C=C/C=C/C=C/1C [Zotarolimus],remaining activity at 1.25 µM,[1]; Well no.=8308,90.2%
same,remaining activity at 3.75 µM,[2]; Well no.=8308,91.2%
CCCCN1CCCC[C@H]1C(=O)Nc1c(C)cccc1C [Levobupivacaine hydrochloride],remaining activity at 1.25 µM,[1]; Well no.=6043,98.8%
same,remaining activity at 3.75 µM,[2]; Well no.=6043,105%
COCCOc1ccc(N2CCN(CCn3ncc4c3nc(N)n3nc(-c5ccco5)nc43)CC2)cc1 [Preladenant],remaining activity at 1.25 µM,[1]; Well no.=7141,102%
same,remaining activity at 3.75 µM,[2]; Well no.=7141,102%
CC(C)=CCC/C(C)=C/CC/C(C)=C/CSc1ccccc1C(=O)O [Farnesylthiosalicylic acid],remaining activity at 1.25 µM,[1]; Well no.=567,102%
same,remaining activity at 3.75 µM,[2]; Well no.=567,102%
CC(=O)[C@H]1CC[C@H]2[C@@H]3CC=C4C[C@@H](O)CC[C@]4(C)[C@H]3CC[C@]12C [Pregnenolone],remaining activity at 1.25 µM,[1]; Well no.=2151,103%
same,remaining activity at 1.25 µM,[1]; Well no.=6277,106%
same,remaining activity at 1.25 µM,[1]; Well no.=6919,108%
same,remaining activity at 3.75 µM,[2]; Well no.=2151,103%
same,remaining activity at 3.75 µM,[2]; Well no.=6277,102%
same,remaining activity at 3.75 µM,[2]; Well no.=6919,106%
c1ccc(-c2n[nH]c3c2oc2ccccc23)cc1 [GTP-14564],remaining activity at 1.25 µM,[1]; Well no.=2417,104%
same,remaining activity at 3.75 µM,[2]; Well no.=2417,105%
CS(=O)(=O)N1CCc2c(-c3cnc(N)nc3)nc(N3CCOCC3)nc21 [CH5132799],remaining activity at 1.25 µM,[1]; Well no.=5348,95.8%
same,remaining activity at 3.75 µM,[2]; Well no.=5348,96%
Cc1ccc(S(=O)(=O)Cc2nc(-c3ccc(C(=O)NCc4cccnc4)cc3)oc2C)cc1 [STF-118804],remaining activity at 1.25 µM,[1]; Well no.=5552,90.7%
same,remaining activity at 3.75 µM,[2]; Well no.=5552,91.7%
